Assay results published in US20090209492A1, “Lipase Inhibitors” (TRUSTEES OF TUFTS COLLEGE, priority 2004, published 2009).

biological target: T1, endothelial lipase (Homo sapiens, UniProt Q9Y5X9); assay: Endothelial lipase inhibiting activity of boronic acids; format: biochemical; details: aliphatic boronic acids; 50 micromolar solution of each compound
T1 sequence (Q9Y5X9 21-500): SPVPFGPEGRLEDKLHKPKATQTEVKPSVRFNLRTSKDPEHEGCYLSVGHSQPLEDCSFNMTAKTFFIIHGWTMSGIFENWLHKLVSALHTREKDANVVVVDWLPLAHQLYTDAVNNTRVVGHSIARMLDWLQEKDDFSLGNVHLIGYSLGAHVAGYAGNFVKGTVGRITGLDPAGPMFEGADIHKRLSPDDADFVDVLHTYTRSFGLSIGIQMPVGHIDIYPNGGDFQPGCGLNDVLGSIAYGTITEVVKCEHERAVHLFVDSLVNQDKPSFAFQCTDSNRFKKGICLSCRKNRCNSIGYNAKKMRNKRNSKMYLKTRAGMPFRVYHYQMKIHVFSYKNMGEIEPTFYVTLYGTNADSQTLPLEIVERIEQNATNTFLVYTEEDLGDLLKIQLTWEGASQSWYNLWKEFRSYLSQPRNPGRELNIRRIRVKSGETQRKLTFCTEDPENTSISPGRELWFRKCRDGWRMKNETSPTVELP
Experimental: The endothelial lipase inhibiting activity of various aliphatic boronic acids was tested.
The endothelial lipase inhibiting activity of various aromatic boronic acids was tested.

| inhibition at 50 µM [%] | Structure (SMILES) |
| --- | --- |
| 9 | CC(C)CB(O)O |
| 90 | CCCCCCCCCCCCCCCB(O)O |
| 72 | C=CCCCB(O)O |
| 77 | CCCCCC/C=C/B(O)O |
| 42 | CCCCCB(O)O |
| 82 | CCCCCCC/C=C/B(O)O |
| 53 | CCCCCCB(O)O |
| 89 | CCCCCCCCCCCCCCB(O)O |
| 63 | CCCCC/C=C/B(O)O |
| 62 | CCCCCCCCCCCCCCCCB(O)O |

same assay, conditions: aliphatic boronic acids; endothelial lipase

| IC50 [µM] | Structure (SMILES) |
| --- | --- |
| 26 | C=CCCCB(O)O |
| 1 | CCCCCCCCCCCCCCB(O)O |

same assay, conditions: aromatic boronic acids; 50 micromolar solution of each compound

| inhibition at 50 µM [%] | Structure (SMILES) |
| --- | --- |
| 60 | O=Cc1ccc(B(O)O)cc1 |
| 10 | OB(O)Cc1ccccc1 |
| 80 | CC(=O)c1ccc(B(O)O)cc1 |
| 7 | OB(O)C1CCCC1 |
| 88 | Cc1ccc(B(O)O)cc1 |
| 1 | OB(O)C1CCCCC1 |
| 83 | CCc1ccc(B(O)O)cc1 |

same assay, conditions: aromatic boronic acids; endothelial lipase

| IC50 [µM] | Structure (SMILES) |
| --- | --- |
| 26 | CC(=O)c1ccc(B(O)O)cc1 |
| 17 | Cc1ccc(B(O)O)cc1 |
| 11 | CCc1ccc(B(O)O)cc1 |
